The results in this text go back to patent US10537558B2 (Bantam Pharmaceutical, LLC, priority 2015, dated 2020).

The assay concerns BJAB cells. The assay is described as follows: BJAB cell proliferation (Cell Titer Glo). Format: cell-based. To be noted: Homo sapiens, read-out: EC50. The gist of the method: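 BJAB cells exposed to serially diluted compounds (0.1% DMSO final) for about 72 h at 37 °C. Proliferation read by Cell Titer Glo luminescence as percent of untreated controls; EC50 from non-linear regression of dose-response data.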
On the technique in general: ATP-based viability assays read luminescence as a measure of living cells.

Each structure is given as a SMILES string. Bounds are passed on as bounds.

What is called EC50 is the concentration that produces a half-maximal response. As to `Cc1nn(-c2nc(-c3ccc(Cl)c(Cl)c3)c(SC(C)C)s2)c(C(=O)N(C)CCN)c1-c1cc(C(F)(F)F)cc(C(F)(F)F)c1` [Compound 137, N-(2-aminoethyl)-4-(3,5-bis(trifluoromethyl)phenyl)-1-(4-(3,4-dichlorophenyl)-5-(isopropylthio)thiazol-2-yl)-N,3-dimethyl-1H-pyrazole-5-carboxamide], the EC50 fell in the range of 1 to 5 µM. The value for `Cc1cc(-c2c(C)nn(-c3nc(-c4ccccc4)c(SC(C)C)s3)c2C(=O)O)cc(C)n1` [Compound 37, 4-(2,6-dimethylpyridin-4-yl)-1-(5-(isopropylthio)-4-phenylthiazol-2-yl)-3-methyl-1H-pyrazole-5-carboxylic Acid] was 5 to 10 µM. With `COc1cc(-c2c(C)nn(-c3nc(-c4ccc(Cl)c(Cl)c4)c(SC(C)C)s3)c2C(=O)O)cc(C)n1` [Compound 199, 1-(4-(3,4-dichlorophenyl)-5-(isopropylthio)thiazol-2-yl)-4-(2-methoxy-6-methylpyridin-4-yl)-3-methyl-1H-pyrazole-5-carboxylic Acid] the figure was 1 to 5 µM. With `Cc1nn(-c2nc(-c3ccc(CC(F)(F)F)cc3)c(SC(C)C)s2)c(C(=O)O)c1-c1cccc(F)c1` [Compound 257, 4-(3-fluorophenyl)-1-(5-(isopropylthio)-4-(4-(2,2,2-trifluoroethyl)phenyl)thiazol-2-yl)-3-methyl-1H-pyrazole-5-carboxylic acid] the figure was 1 to 5 µM; with `Cc1nn(-c2nc(-c3ccc(Cl)c(Cl)c3)c(SC(C)C)s2)c(C(=O)O)c1-c1cccc2cc[nH]c12` [Compound 127, 1-(4-(3,4-dichlorophenyl)-5-(isopropylthio)thiazol-2-yl)-4-(1H-indol-7-yl)-3-methyl-1H-pyrazole-5-carboxylic acid], 5 to 10 µM. In the case of `Cc1nn(-c2nc(-c3ccc(Cl)c(Cl)c3)c(SC(C)C)s2)c(C(=O)O)c1-c1cc2ccccc2o1` [Compound 20, 4-(benzofuran-2-yl)-1-(4-(3,4-dichlorophenyl)-5-(isopropylthio)thiazol-2-yl)-3-methyl-1H-pyrazole-5-carboxylic Acid], the EC50 was in the range of 5 to 10 µM. Regarding `Cc1cc(-c2c(C)nn(-c3nc(-c4ccc(Cl)c(Cl)c4)c(SC(C)C)s3)c2C(=O)O)cc(N2CCOCC2)n1` [Compound 102, 1-(4-(3,4-dichlorophenyl)-5-(isopropylthio)thiazol-2-yl)-3-methyl-4-(2-methyl-6-morpholinopyridin-4-yl)-1H-pyrazole-5-carboxylic Acid], the EC50 fell in the range of 5 to 10 µM.

As for `Cc1cc(-c2c(C)nn(-c3nc(-c4ccc(Cl)c(Cl)c4)c(SC(C)C)s3)c2C(=O)O)cc(N2CCC2)n1` [Compound 101, 4-(2-(azetidin-1-yl)-6-methylpyridin-4-yl)-1-(4-(3,4-dichlorophenyl)-5-(isopropylthio)thiazol-2-yl)-3-methyl-1H-pyrazole-5-carboxylic acid], the EC50 fell in the range of 1 to 5 µM. With `COc1cc(Cl)cc(-c2c(C)nn(-c3nc(-c4ccc(Cl)c(Cl)c4)c(SC(C)C)s3)c2C(=O)O)c1` [Compound 145, 4-(3-chloro-5-methoxyphenyl)-1-(4-(3,4-dichlorophenyl)-5-(isopropylthio)thiazol-2-yl)-3-methyl-1H-pyrazole-5-carboxylic Acid] the figure was 1 to 5 µM. With `Cc1nn(-c2nc(-c3ccc(Cl)c(Cl)c3)c(SC(C)C)s2)c(C(=O)O)c1-c1ccc(Cl)cc1` [Compound 113, 4-(4-chlorophenyl)-1-(4-(3,4-dichlorophenyl)-5-(isopropylthio)thiazol-2-yl)-3-methyl-1H-pyrazole-5-carboxylic acid] the figure was 10 to 25 µM. With `Cc1cc(-c2nc(-n3nc(C)c(-c4cccc(F)c4)c3C(=O)O)sc2SC(C)C)n(C)n1` [Compound 211, 1-(4-(1,3-dimethyl-1H-pyrazol-5-yl)-5-(isopropylthio)thiazol-2-yl)-4-(3-fluorophenyl)-3-methyl-1H-pyrazole-5-carboxylic acid] the figure was above 40 µM; with `Cc1nn(-c2nc(-c3ccc(Cl)c(Cl)c3)c(SC(C)C)s2)c(C(=O)N(C)C)c1-c1cc(C(F)(F)F)cc(C(F)(F)F)c1` [Compound 140, 4-(3,5-bis(trifluoromethyl)phenyl)-1-(4-(3,4-dichlorophenyl)-5-(isopropylthio)thiazol-2-yl)-N,N,3-trimethyl-1H-pyrazole-5-carboxamide], above 40 µM; with `COc1cc(Cl)ccc1-c1nc(-n2nc(C)c(-c3cc(C)nc(C)c3)c2C(=O)O)sc1SC(C)C` [Compound 206, 1-(4-(4-chloro-2-methoxyphenyl)-5-(isopropylthio)thiazol-2-yl)-4-(2,6-dimethylpyridin-4-yl)-3-methyl-1H-pyrazole-5-carboxylic Acid], 1 to 5 µM. For `Cc1nn(-c2nc(-c3ccc(Cl)c(Cl)c3)c(SC(C)C)s2)c(C(=O)O)c1-c1cccc(C(C)C)c1` [Compound 61, 1-(4-(3,4-dichlorophenyl)-5-(isopropylthio)thiazol-2-yl)-4-(3-isopropylphenyl)-3-methyl-1H-pyrazole-5-carboxylic Acid], the EC50 was in the range of 1 to 5 µM. With `Cc1nn(-c2nc(-c3ccc(S(F)(F)(F)(F)F)cc3)c(SC(C)C)s2)c(C(=O)O)c1-c1cccc(F)c1` [Compound 255, 4-(3-fluorophenyl)-1-(5-(isopropylthio)-4-(4-(pentafluoro-λ^6-sulfaneyl)phenyl)thiazol-2-yl)-3-methyl-1H-pyrazole-5-carboxylic acid] the figure was below 1 µM. With `Cc1cc(-c2c(C)nn(-c3nc(-c4ccccc4Cl)c(SC(C)C)s3)c2C(=O)O)cc(C)n1` [Compound 157, 1-(4-(2-chlorophenyl)-5-(isopropylthio)thiazol-2-yl)-4-(2,6-dimethylpyridin-4-yl)-3-methyl-1H-pyrazole-5-carboxylic Acid] the figure was 1 to 5 µM; with `Cc1nn(-c2nc(-c3ccc(C(F)(F)F)cc3)c(SC(C)C)s2)c(C(=O)O)c1-c1ccc(F)cc1` [Compound 237, 4-(4-fluorophenyl)-1-(5-(isopropylthio)-4-(4-(trifluoromethyl)phenyl)thiazol-2-yl)-3-methyl-1H-pyrazole-5-carboxylic acid], 1 to 5 µM; with `Cc1nn(-c2nc(-c3ccc(Cl)c(Cl)c3)c(SC(C)C)s2)c(C(=O)O)c1-c1cc(O)cc(Cl)c1` [Compound 154, 4-(3-chloro-5-hydroxyphenyl)-1-(4-(3,4-dichlorophenyl)-5-(isopropylthio)thiazol-2-yl)-3-methyl-1H-pyrazole-5-carboxylic Acid], 10 to 25 µM. The value for `COc1ccc(-c2nc(-n3nc(C)c(-c4cc(C)nc(C)c4)c3C(=O)O)sc2SC(C)C)cc1` [Compound 36, 4-(2,6-dimethylpyridin-4-yl)-1-(5-(isopropylthio)-4-(4-methoxyphenyl)thiazol-2-yl)-3-methyl-1H-pyrazole-5-carboxylic acid] was 10 to 25 µM; that for `Cc1nn(-c2nc(-c3ccc(Cl)c(Cl)c3)c(SC(C)C)s2)c(C(=O)N2CC(N)C2)c1-c1cc(C(F)(F)F)cc(C(F)(F)F)c1` [Compound 138, (3-aminoazetidin-1-yl)(4-(3,5-bis(trifluoromethyl)phenyl)-1-(4-(3,4-dichlorophenyl)-5-(isopropylthio)thiazol-2-yl)-3-methyl-1H-pyrazol-5-yl)methanone] was 10 to 25 µM.
